From article PMC6982123 (ACS chemical neuroscience, 2019)
“Also recorded” adds a separate entry of the source. Like-named read-outs stand apart in the source and are kept apart here. Square brackets hold non-standard residues; d marks the D form. Peptide text beside a SMILES is read from it. * marks the point of attachment. ξ: configuration not given here. Aoe(9ξ) = N[C@@H](CCCCCC(=O)C1CO1)C(=O)O; Asu = N[C@@H](CCCCCC(=O)O)C(=O)O; dPip = O=C(O)[C@H]1CCCCN1; NHOH = ON*

Columns and labels:
[1] = system: H3K9ac; conditions: treatment at 10 μM; cited from earlier work
[2] = system: PGRN; conditions: cited from earlier work
[3] = system: PGRN; experiment: Intracellular PGRN ELISA in iPSC-derived NPCs; assay type: cell-based, human; conditions: for Effect on PGRN (1 μM, NPCs) / PGRN induction (in words): 18 h treatment; for Effect on PGRN (1 μM, NPCs): intracellular PGRN; for PGRN induction (in words): Figure 2; for EC50: Homo sapiens, read-out: EC50 of PGRN induction (dose-response curves)
[4] = system: H3K9ac; experiment: Histone H3 acetylation Western blot in NPCs; assay type: cell-based, human
[5] = target: HDAC2 (Homo sapiens, UniProt Q92769); assay type: biochemical
Sequence of HDAC2 (Q92769 9-376 limits assumed): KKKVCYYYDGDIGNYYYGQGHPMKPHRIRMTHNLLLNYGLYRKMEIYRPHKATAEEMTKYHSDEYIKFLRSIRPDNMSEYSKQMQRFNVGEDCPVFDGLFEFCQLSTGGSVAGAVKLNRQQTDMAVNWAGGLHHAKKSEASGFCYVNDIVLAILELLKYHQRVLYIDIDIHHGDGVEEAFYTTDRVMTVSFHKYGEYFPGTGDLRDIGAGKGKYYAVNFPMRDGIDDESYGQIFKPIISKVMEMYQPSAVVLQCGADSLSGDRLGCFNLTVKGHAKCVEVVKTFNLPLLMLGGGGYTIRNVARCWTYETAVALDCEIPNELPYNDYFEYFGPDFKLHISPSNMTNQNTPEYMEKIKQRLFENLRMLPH

[6] = target: HDAC1 (Homo sapiens, UniProt Q13547); experiment: biochemical; assay type: biochemical
Sequence of HDAC1 (Q13547 9-376 limits assumed): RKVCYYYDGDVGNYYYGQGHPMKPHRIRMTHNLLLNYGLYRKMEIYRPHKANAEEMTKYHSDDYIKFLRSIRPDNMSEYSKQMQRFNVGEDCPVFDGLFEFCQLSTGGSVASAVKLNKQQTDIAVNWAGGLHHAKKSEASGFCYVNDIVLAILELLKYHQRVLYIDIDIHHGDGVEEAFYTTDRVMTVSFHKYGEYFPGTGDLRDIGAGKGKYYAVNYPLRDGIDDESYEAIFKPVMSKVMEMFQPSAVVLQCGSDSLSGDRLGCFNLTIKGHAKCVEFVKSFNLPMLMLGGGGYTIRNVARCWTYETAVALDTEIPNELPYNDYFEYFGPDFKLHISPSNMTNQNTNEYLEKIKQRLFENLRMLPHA

[7] = system: HDACs 1–3; experiment: HDAC inhibition kinetics, summary statement over HDACs 1-3; assay type: biochemical; conditions: summary over HDACs 1–3 (Tables 1 and S1)
[8] = target: HDAC3 in combination with the DAD domain of NCoR2 (Homo sapiens, UniProt O15379); conditions: read-out: Ki HDAC3; cited from earlier work
Sequence of HDAC3 in combination with the DAD domain of NCoR2 (O15379 whole entry, the tested form may be a part): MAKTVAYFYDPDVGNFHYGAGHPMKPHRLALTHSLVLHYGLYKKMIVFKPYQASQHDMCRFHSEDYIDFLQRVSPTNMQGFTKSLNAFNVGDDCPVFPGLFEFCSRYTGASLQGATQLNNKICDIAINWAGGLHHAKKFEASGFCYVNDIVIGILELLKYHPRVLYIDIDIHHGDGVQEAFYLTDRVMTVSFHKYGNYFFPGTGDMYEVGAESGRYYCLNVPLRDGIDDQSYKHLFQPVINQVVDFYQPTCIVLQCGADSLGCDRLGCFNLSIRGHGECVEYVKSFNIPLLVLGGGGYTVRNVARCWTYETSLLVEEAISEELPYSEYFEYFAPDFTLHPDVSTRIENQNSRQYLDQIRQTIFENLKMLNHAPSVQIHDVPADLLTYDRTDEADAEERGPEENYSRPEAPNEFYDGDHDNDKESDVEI
Sequence of HDAC3 in combination with the DAD domain of NCoR2 (Q9Y618 395-489 partner limits assumed): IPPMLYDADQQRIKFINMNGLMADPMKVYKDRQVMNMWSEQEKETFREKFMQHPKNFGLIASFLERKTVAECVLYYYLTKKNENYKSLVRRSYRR

[9] = system: human iPSC-derived NPCs and Ngn2 neurons; experiment: Cellular viability during PGRN experiments; assay type: cell-based; conditions: 10 μM, 18 h treatment (Figure 2)
[10] = system: HDAC6; conditions: previously reported; cited from earlier work
[11] = kinetic model from progression curves

Molecule	Effect on PGRN (1 μM, NPCs) ([3]; NPCs)	PGRN induction (in words) ([3]; NPCs)	Effect on H3K9ac (1 μM, NPCs) ([4]; NPCs, 18 h treatment)	Mechanism of binding HDAC1 [6, 11]	EC50 ([3]; 18 h) [nM]	Mechanism of binding HDAC2 [5, 11]	dissociative half-life (dis. t½) [7]	other results
O=C(CCCCCCC(=O)Nc1ccccc1)NO [Compound 1, SAHA]								Effect on H3K9ac (NPCs) [1]: >20 fold incr.‡, [10]; Effect on PGRN (NPCs) ([2]; treatment at 10 μM): >2 fold incr.‡, [10]
O=C(CCCCCCC(=O)C(F)(F)F)Nc1ccccc1 [Compound 2, SATK]	No change	not able to affect PGRN production	No change					
CC(=O)Nc1ccc(C(=O)Nc2ccccc2N)cc1 [Compound 3, tacedinaline]		not able to affect PGRN production		mechanism B type of slow-binding inhibition	> 20000			Mechanism of binding HDAC2 [5]: mechanism B type of slow-binding inhibition; Effect on PGRN (NPCs) ([3]; treatment at 10 μM, NPCs, 18 h): Decrease^‡; Intensity of histone marks (H3 acetylation at K9 and K27) ([4]; Western blot, 18 h treatment, Figure 3 and S7): levels comparable to panobinostat; Effect on H3K9ac (NPCs) ([4]; treatment at 10 μM, NPCs, 18 h): ~18 fold incr^‡
CC(=O)Nc1ccc(C(=O)Nc2cc(-c3cccs3)ccc2N)cc1 [Compound 4, Cpd-60]								PGRN induction (in words) ([2]; human neuronal cell culture): not able to affect PGRN production
Cc1[nH]c2ccccc2c1CCNCc1ccc(/C=C/C(=O)NO)cc1 [Compound 5, panobinostat]	~2.3 fold incr.		~36 fold incr.		200 ± 10	slow, tight-binding inhibition profiles (mechanism B); also recorded: effectively irreversible behavior	over 20 min	
O=C(CCCCC[C@@H]1NC(=O)[C@H]2CCCCN2C(=O)[C@H](Cc2ccccc2)NC(=O)[C@H](Cc2ccccc2)NC1=O)C1CO1 (stereo partly shown) [Compound 6, trapoxin A] (cyclo(FF[dPip][Aoe(9ξ)]))	~2.4 fold incr.	substantial increase in PGRN	~5.0 fold incr.	mechanism A kinetics	22 ± 1	mechanism A kinetics		Ki [6]: ~0.003 nM
O=C(CCCCC[C@@H]1NC(=O)[C@H]2CCCN2C(=O)[C@H](Cc2ccccc2)NC(=O)[C@H](Cc2ccccc2)NC1=O)NO [Compound 7c, TpxB^Asuha] (cyclo([Asu](NHOH)FF[dP]))	~2.2 fold incr.	substantial increase in PGRN	~6.3 fold incr.				over 20 min	Ki [8]: ~0.02 nM
CCC(=O)CCCCC[C@@H]1NC(=O)[C@H]2CCCCN2C(=O)[C@H]([C@@H](C)CC)NC(=O)[C@H](Cc2cn(OC)c3ccccc23)NC1=O [Compound 8a, apicidin]	~1.7 fold incr.		~3.3 fold incr.		790 ± 20	fast-on/fast-off binding kinetics		Mechanism of binding HDAC1 [6]: fast-on/fast-off binding kinetics
C/C=C1\NC(=O)[C@H]2CSSCC/C=C/[C@H](CC(=O)N[C@H](C(C)C)C(=O)N2)OC(=O)[C@H](C(C)C)NC1=O [Compound 10, romidepsin]	~4.1 fold incr.	substantial increase in PGRN	~2.3 fold incr.	slow, tight-binding (mechanism B)			over 20 min	Ki [6]: ~0.02 nM; Cellular viability [9]: impaired cellular viability
C[C@@H]1NC(=O)[C@H]2CCCN2C(=O)[C@H](CCCCCC(=O)[C@@H]2CO2)NC(=O)[C@@H](C)NC1=O [Compound S2, HC-toxin]								Mechanism of binding HDAC6 [10]: fast-on/fast-off kinetics
trichostatin A [Compound S1]				slow, tight-binding inhibition profiles (mechanism B)		slow, tight-binding inhibition profiles (mechanism B)	over 20 min	
